The source of these data is ChEMBL document CHEMBL4382293, “Triazolopyrimidines and Imidazopyridines: Structure-Activity Relationships and in Vivo Efficacy for Trypanosomiasis” (ACS Med Chem Lett, 2019).

SMILES strings stand for the structures.

Type in all cases: ADME, organism-based
Data set [1] can be described thus: Cmax in Swiss Webster mouse at 50 mg/kg, po administered as single dose via gavage by LC/MS analysis. Also noted: dose 50 mg/kg, route oral. As to conditions: in vivo.
Data set [2] in a line: AUC in Swiss Webster mouse at 50 mg/kg, po administered as single dose via gavage by LC/MS analysis. As to conditions: in vivo.
Data set [3] is described as follows: Ratio of drug level in brain to plasma in Swiss Webster mouse at 5 mg/kg, ip measured after 1 hr by LC/MS analysis. The settings on record: for Kp at 1 h: Swiss Webster, brain/plasma, read-out: BPR.
A short description of data set [4]: Oral bioavailability in Swiss Webster mouse at 50 mg/kg administered as single dose via gavage by LC/MS analysis. The settings on record: in vivo.
Data set [5] can be described thus: Volume of distribution at steady state in Swiss Webster mouse at […], iv administered as single dose by LC/MS analysis. The settings on record: in vivo, read-out: Vdss.
Data set [6] in a line: Drug level in Swiss Webster mouse plasma at 5 mg/kg, ip measured after 1 hr by LC/MS analysis.
A short description of data set [7]: Drug level in Swiss Webster mouse brain at 5 mg/kg, ip measured after 1 hr by LC/MS analysis. As to conditions: read-out: Drug uptake.

What is called Cmax is the peak of the concentration-time curve. By AUC is commonly meant concentration integrated over time. High values mean high exposure, low ones low exposure. `O=C(Nc1ccc(F)c(-c2nc3ncc(-c4cc(F)cc(F)c4)cc3[nH]2)c1)N1CCCC1` returned a Cmax in data set [1] of 4.8 µM. Moreover, the AUC in data set [2] turned out to be 1290 µM·min.
On the same counts, the results for `O=C(Nc1ccc(F)c(-c2nc3ncc(-c4cccnc4F)cc3[nH]2)c1)N1CCCC1` are 25.6 µM and 4410 µM·min.
In the case of `O=C(Nc1ccc(F)c(-c2nc3cc(-c4ccccc4)cnc3[nH]2)c1)N1CCCC1`, in data set [3] (brain, 1 h), the BPR was 0.04. In data set [2], the AUC stood at 1240 µM·min.
For the compound `O=C(Nc1ccc(F)c(-c2nc3ncc(C(F)(F)F)cc3[nH]2)c1)N1CCCC1`, the Kp at 1 h in data set [3] is 0.08. The compound also displayed a Cmax in data set [1] of 1.08 µM. The AUC in data set [2] was 74.6 µM·min.
For the compound `O=C(Nc1ccc(F)c(-c2nc3ncc(-c4ccc(F)c(F)c4)cc3[nH]2)c1)N1CCCC1`, the Kp at 1 h in data set [3] is 0.02. The Cmax in data set [1] came to 6.67 µM. Also, the AUC in data set [2] is 1650 µM·min.
The like results for `Cc1nc(C)c(C(=O)Nc2ccc(F)c(-c3nc4ncc(-c5ccccn5)cn4n3)c2)o1` were, in that order, 0.12, 54.4 µM and 45900 µM·min.
As usually defined, the bioavailability is the share of a dose that reaches the circulation, judged against a reference dose that is usually intravenous. Read a high bioavailability as much systemic uptake. Regarding `O=C(Nc1ccc(F)c(-c2nc3ncc(-c4ccccn4)cn3n2)c1)N1CCC(F)(F)C1`, the Kp at 1 h in data set [3] came to 0.02. The bioavailability in data set [4] was 70%. Moreover, in data set [1], the Cmax came out at 31.1 µM. The compound further showed an AUC in data set [2] of 15700 µM·min. For the same compound, the Vd in data set [5] was in the range of 0.7 to 1.1 L/kg.
On to `O=C(Nc1ccc(F)c(-c2nc3ncc(-c4cccc(F)c4)cc3[nH]2)c1)N1CCCC1`, for which, in data set [1], the Cmax amounted to 7 µM. Besides, the AUC in data set [2] stood at 2150 µM·min.
Regarding `O=C(Nc1ccc(F)c(-c2nc3ncc(-c4ccc(F)cc4F)cc3[nH]2)c1)N1CCCC1`, the Kp at 1 h in data set [3] was determined as 0.01. This compound displayed a Cmax in data set [1] of 9.5 µM. Also, the AUC in data set [2] worked out at 2140 µM·min.
`O=C(Nc1ccc(F)c(-c2nc3ncc(-c4ccc(O)cc4)cc3[nH]2)c1)N1CCCC1` came in with a Cmax in data set [1] of 0.13 µM. For the same compound, the AUC in data set [2] is 19.7 µM·min.
Regarding `O=C(Nc1ccc(F)c(-c2nc3ncc(-c4cccc(F)c4F)cc3[nH]2)c1)N1CCCC1`, in data set [1], the Cmax was determined as 1.83 µM. In data set [2], this compound had an AUC of 651 µM·min.
With `O=C(Nc1ccc(F)c(-c2nc3ncc(-c4ccccc4F)cc3[nH]2)c1)N1CCCC1`, in data set [3], the Kp at 1 h is 0.02. Also, the concentration in data set [1] peaked (Cmax) at 2.23 µM. The compound also showed an AUC in data set [2] of 696 µM·min.
Compound `O=C(Nc1ccc(F)c(-c2nc3ncc(-c4cc(F)ccc4F)cc3[nH]2)c1)N1CCCC1` displayed a Cmax in data set [1] of 2.8 µM. In data set [2], this compound gave an AUC of 771 µM·min.
The like results for `O=C(Nc1ccc(F)c(-c2nc3ncc(-c4cncc(F)c4)cc3[nH]2)c1)N1CCCC1` were, in that order, 1.07 µM and 222 µM·min.
Consider `Cc1nc(C)c(C(=O)Nc2ccc(F)c(-c3nc4ncc(-c5ccccc5Cl)cn4n3)c2)o1`, for which the Kp at 1 h in data set [3] came out at 0.23. Moreover, the concentration at 1 h in data set [6] amounted to 8.8 µM; in data set [7], 1900 nM. For the same compound, the bioavailability in data set [4] was determined as 70%. The compound also came in with a Cmax in data set [1] of 39.3 µM. In data set [2], this compound yielded an AUC of 40000 µM·min. Moreover, in data set [5], the Vd lay in the range of 0.7 to 1.1 L/kg.
With `O=C(Nc1ccc(F)c(-c2nc3ncc(-c4ccc(F)cc4)cc3[nH]2)c1)N1CCCC1`, in data set [3], the Kp at 1 h turned out to be 0.04. Also, the Cmax in data set [1] turned out to be 6.27 µM. In data set [2], this compound displayed an AUC of 1460 µM·min.
